In patent publication US20250000766A1, “ANTIMICROBIAL ESTERS FOR SKIN AND SCALP CARE” (SYMRISE AG, priority 2021, published 2025):
Like-named read-outs stand apart in the source and are kept apart here.

Assays:
M. globosa CBS 7966 = experiment: Agar dilution test, growth inhibition (MIC) of M. globosa CBS 7966; type: cell-based; conditions: MLN agar, 7 days at 30° C.
Method: (§1) The fatty acid esters and their mixtures were tested for growth inhibition against Malassezia. The following reference strains were included:
(§2) Tests were performed in 6 well plates on solid media using agar dilution tests. Stock solutions of test substances were prepared in DMSO. Lower test concentrations were obtained by diluting stock solutions in DMSO.
(§3) Briefly, microorganisms are inoculated on modified Leeming & Notman (MLN) agar. A well grown plate is harvested in a 0.8% NaCl solution. Dilutions of test substances are prepared according to the concentration range required for the test. 5 μl of the test sample and controls are complemented with 500 μl MLN agar and mixed by shaking. 200 μl of liquid MLN per well are added onto the solidified agar. Afterwards, 20 μl of inoculum solution is added, with except of the blanks, and samples are incubated for 7 days at 30° C. Typical concentrations to be tested are 5000 ppm, 2500 ppm, and 1:1 dilutions from 1000 ppm (500 ppm, 250 ppm, etc).
(§4) Appropriate controls are included to show the growth of organisms without antifungal substances and antifungal activity of reference substances.

M. restricta CBS 7877 = experiment: Agar dilution test, growth inhibition (MIC) of M. restricta CBS 7877; type: cell-based; conditions: MLN agar, 7 days at 30° C.
Method: as §1, §2, §3, §4

M. sympodialis DSM 6171 = experiment: Agar dilution test, growth inhibition (MIC) of M. sympodialis DSM 6171; type: cell-based; conditions: MLN agar, 7 days at 30° C.
Method: as §1, §2, §3, §4

M. sympodialis = test system: M. sympodialis; set-up: unit not given here; conditions: cited from earlier work
M. globosa = test system: M. globosa; set-up: unit not given here; conditions: cited from earlier work
M. restricta = test system: M. restricta; set-up: unit not given here; conditions: M. restricta strain 7877; cited from earlier work

Question: Which results are given for sorbitan caprylate?
Answer: Minimal inhibitory concentration (MIC) (M. globosa CBS 7966): 1.000 ppm; Minimal inhibitory concentration (MIC) (M. restricta CBS 7877): 2.500 ppm; Minimal inhibitory concentration (MIC) (M. sympodialis DSM 6171): 5.000 ppm

Question: Which MIC (M. sympodialis; M. sympodialis strain 6171) does the source give for `CCCCCCCC(=O)OCC` [Ethyl caprylate, ethyl caprylate] here?
Answer: 1,000

Question: What about the MIC (M. sympodialis; M. sympodialis strain 7222) of the same molecule?
Answer: 1,000

Question: And the MIC (M. sympodialis; M. sympodialis strain 7979)?
Answer: 1,000

Question: And the MIC (M. sympodialis; M. sympodialis strain 42132)?
Answer: 1,000

Question: And the MIC (M. globosa; M. globosa strain 7966)?
Answer: 1,000

Question: What about the MIC (M. globosa; M. globosa strain PM1) of the same molecule?
Answer: 1,000

Question: And the MIC (M. restricta)?
Answer: 4,000

Question: For “polyglyceryl-3 caprylate [Polyglyceryl-3-caprylate]”, which “Minimal inhibitory concentration (MIC)” value (M. globosa CBS 7966) is on record?
Answer: 1.000 ppm

Question: And the “Minimal inhibitory concentration (MIC)” value (M. sympodialis DSM 6171)?
Answer: 2.500 ppm

Question: Which MIC (M. sympodialis; M. sympodialis strain 6171) does the source give for `CCCCCCCC(=O)OCCCO` [3-Hydroxypropyl caprylate, 3-hydroxypropyl caprylate] here?
Answer: 2,000

Question: And the MIC (M. sympodialis; M. sympodialis strain 7222)?
Answer: 1,000

Question: What about the MIC (M. sympodialis; M. sympodialis strain 7979) of the same molecule?
Answer: 2,000

Question: And the MIC (M. sympodialis; M. sympodialis strain 42132)?
Answer: 1,000

Question: And the MIC (M. globosa; M. globosa strain 7705)?
Answer: 1,000

Question: What about the MIC (M. globosa; M. globosa strain 7966) of the same molecule?
Answer: 1,000

Question: And the MIC (M. globosa; M. globosa strain PM1)?
Answer: 500

Question: What about the MIC (M. restricta) of the same molecule?
Answer: 1,000

Question: Which results are given for xylityl sesquicaprylate?
Answer: Minimal inhibitory concentration (MIC) (M. globosa CBS 7966): 1.000 ppm; Minimal inhibitory concentration (MIC) (M. restricta CBS 7877): 2.500 ppm; Minimal inhibitory concentration (MIC) (M. sympodialis DSM 6171): 2.500 ppm

Question: Which MIC (M. sympodialis; M. sympodialis strain 6171) does the source give for `CCCCCCCC(=O)OCC(O)CO` (stereo not drawn) [Glyceryl monocaprylate, glyceryl monocaprylate] here?
Answer: 2,000

Question: And the MIC (M. sympodialis; M. sympodialis strain 7222)?
Answer: 1,000

Question: What about the MIC (M. sympodialis; M. sympodialis strain 7979) of the same molecule?
Answer: 1,000

Question: And the MIC (M. sympodialis; M. sympodialis strain 42132)?
Answer: 1,000

Question: What about the MIC (M. globosa; M. globosa strain 7705) of the same molecule?
Answer: 1,000

Question: And the MIC (M. globosa; M. globosa strain 7966)?
Answer: 1,000

Question: What about the MIC (M. restricta) of the same molecule?
Answer: 300
